Literature values as cited in US11602507B2, “Extended release oral composition of memantine or its salt and its process for the preparation” (TRIKONA PHARMACEUTICALS PVT. LTD, priority 2019, dated 2023).

Structure (SMILES): CC12CC3CC(C)(C1)CC(N)(C3)C2 [Memantine, 1-amino-3,5-dimethyladamantane]
- solubility in water: highly soluble in water
